These molecules were tested against T1, human Factor Xa (Homo sapiens, UniProt P00742) (assay: Inhibition constants for human factor Xa, chromogenic substrate assay). Conditions: 25° C., Pefachrome FXa substrate, average of at least three determinations; read-out: Ki h FXa.
T1 construct: human Factor Xa from Enzyme Research Laboratories; purchased Enzyme Research Laboratories
Assay type: biochemical
Description: (§1) The inhibitory effect against the individual purified enzymes was determined in analogy to a previously disclosed method (Stürzebecher et al., J. Med. Chem., 40, 3091-3099 (1997)).
(§2) 200 μL of TBS (0.05 M trishydroxymethylaminomethane; 0.154 M NaCl, 2% ethanol, pH 8.0)
(§3) The release of p-nitroaniline (p-NA, the chromogenic product of the proteolytic activity), was determined by change in absorbance at 405 nm. The equilibrium rates were used to calculate the inhibitor/enzyme dissociation constant (Ki values) by parameter fitting in accordance with the rate equation for competitive inhibition using GraFit (version 4 from Erithacus). The results are reported as Ki values (nanomolar) in table 7 and are the average of at least three determinations.

T1 sequence (P00742 235-488 limits assumed): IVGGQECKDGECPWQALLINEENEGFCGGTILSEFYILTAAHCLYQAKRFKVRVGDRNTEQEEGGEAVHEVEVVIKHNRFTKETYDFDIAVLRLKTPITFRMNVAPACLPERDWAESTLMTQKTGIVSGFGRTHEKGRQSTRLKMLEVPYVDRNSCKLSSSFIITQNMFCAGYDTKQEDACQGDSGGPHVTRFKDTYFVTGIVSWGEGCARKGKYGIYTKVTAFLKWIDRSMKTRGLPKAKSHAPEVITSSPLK
T1 sequence (P00742 41-179 partner limits assumed): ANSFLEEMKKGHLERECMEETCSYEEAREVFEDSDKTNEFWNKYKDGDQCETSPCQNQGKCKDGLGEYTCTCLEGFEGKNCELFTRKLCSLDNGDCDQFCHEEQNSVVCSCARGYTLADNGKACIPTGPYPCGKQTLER

Question: For `NCc1ccc(Cl)cc1CNC(=O)CC[C@@H](NS(=O)(=O)Cc1ccccc1)C(=O)N1CCC[C@H]1C(=O)NCc1cc(Cl)ccc1CN` [Compound 2.30], which Ki is on record?
Answer: Its Ki is 0.0086 µM.

Question: Which Ki does the source give for `NCc1ccc(Cl)cc1CNC(=O)[C@@H]1CCCN1C(=O)[C@@H](CCC(=O)N1CCNCC1)NS(=O)(=O)Cc1ccccc1` [Compound 2.31] here?
Answer: The Ki was 0.021 µM.

These molecules were tested against T2, Human tissue-type plasminogen activator (h t-PA) (Homo sapiens, UniProt P00750) (assay: Inhibition of human tissue-type plasminogen activator (reference enzyme)). Conditions: Pefachrome tPA substrate; read-out: Ki h t-PA.
T2 construct: purchased Boehringer Ingelheim Actilyse
Assay type: biochemical
Description: The equilibrium rates were used to calculate the inhibitor/enzyme dissociation constant (Ki values) by parameter fitting in accordance with the rate equation for competitive inhibition using GraFit (version 4 from Erithacus).
(§4) Dissociation constants were calculated as described herein.

T2 sequence (P00750 36-562): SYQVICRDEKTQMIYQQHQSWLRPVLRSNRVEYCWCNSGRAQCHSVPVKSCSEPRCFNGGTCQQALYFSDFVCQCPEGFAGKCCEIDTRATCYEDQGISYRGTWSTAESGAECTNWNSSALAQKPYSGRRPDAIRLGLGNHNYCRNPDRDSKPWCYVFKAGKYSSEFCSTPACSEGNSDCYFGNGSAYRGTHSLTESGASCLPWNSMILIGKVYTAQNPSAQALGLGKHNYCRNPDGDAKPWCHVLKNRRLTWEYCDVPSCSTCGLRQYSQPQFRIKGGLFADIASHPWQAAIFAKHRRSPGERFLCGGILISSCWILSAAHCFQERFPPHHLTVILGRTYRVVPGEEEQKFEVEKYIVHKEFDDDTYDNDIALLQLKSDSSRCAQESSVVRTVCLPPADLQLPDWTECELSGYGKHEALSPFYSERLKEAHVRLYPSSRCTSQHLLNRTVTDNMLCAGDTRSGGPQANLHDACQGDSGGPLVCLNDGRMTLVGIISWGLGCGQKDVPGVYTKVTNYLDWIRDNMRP

Question: `NCc1ccc(Cl)cc1CNC(=O)CC[C@@H](NS(=O)(=O)Cc1ccccc1)C(=O)N1CCC[C@H]1C(=O)NCc1cc(Cl)ccc1CN` [Compound 2.30] was tested. Which Ki did it give?
Answer: Its Ki is > 20 µM.

Question: Which Ki does the source give for `NCc1ccc(Cl)cc1CNC(=O)[C@@H]1CCCN1C(=O)[C@@H](CCC(=O)N1CCNCC1)NS(=O)(=O)Cc1ccccc1` [Compound 2.31] here?
Answer: Its Ki is > 20 µM.

What follows are molecules tested against T3, Subcomponent "s" of Human Complement Component 1 (h C1s) (Homo sapiens, UniProt P09871) (assay: Inhibition of human C1s (reference enzyme)). Conditions: S-2314 substrate; read-out: Ki h Cls.
T3 construct: purchased Calbiochem
T3 sequence (P09871 438-688 limits assumed): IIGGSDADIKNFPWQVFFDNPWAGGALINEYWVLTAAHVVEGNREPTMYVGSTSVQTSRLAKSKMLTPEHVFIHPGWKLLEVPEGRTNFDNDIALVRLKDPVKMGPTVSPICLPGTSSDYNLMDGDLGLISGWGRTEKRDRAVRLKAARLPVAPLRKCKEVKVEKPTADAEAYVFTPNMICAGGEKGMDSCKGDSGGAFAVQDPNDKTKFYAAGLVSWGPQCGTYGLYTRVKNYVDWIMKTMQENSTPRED
T3 sequence (P09871 16-437 partner limits assumed): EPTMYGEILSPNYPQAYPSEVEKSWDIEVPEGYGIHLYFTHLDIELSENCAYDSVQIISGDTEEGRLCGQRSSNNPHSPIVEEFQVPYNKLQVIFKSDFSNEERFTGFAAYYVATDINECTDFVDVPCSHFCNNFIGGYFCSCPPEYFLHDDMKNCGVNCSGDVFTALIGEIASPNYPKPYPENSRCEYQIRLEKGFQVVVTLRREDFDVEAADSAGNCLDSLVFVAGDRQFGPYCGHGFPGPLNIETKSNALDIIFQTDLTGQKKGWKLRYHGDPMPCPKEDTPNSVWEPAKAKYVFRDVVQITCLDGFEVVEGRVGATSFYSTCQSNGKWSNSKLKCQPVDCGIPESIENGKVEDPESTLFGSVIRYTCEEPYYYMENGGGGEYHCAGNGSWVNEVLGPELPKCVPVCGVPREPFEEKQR
Assay type: biochemical
Description: as §1, §3, §4

Question: Which Ki does the source give for `NCc1ccc(Cl)cc1CNC(=O)CC[C@@H](NS(=O)(=O)Cc1ccccc1)C(=O)N1CCC[C@H]1C(=O)NCc1cc(Cl)ccc1CN` [Compound 2.30] here?
Answer: The Ki was > 80 µM.

Question: How did the Ki turn out when `NCc1ccc(Cl)cc1CNC(=O)[C@@H]1CCCN1C(=O)[C@@H](CCC(=O)N1CCNCC1)NS(=O)(=O)Cc1ccccc1` [Compound 2.31] was run?
Answer: The Ki was > 100 µM.

The molecules below were run against T4, Human urinary kallikrein (h uKK) (Homo sapiens, UniProt P06870) (assay: Inhibition of human urinary kallikrein (reference enzyme)). Conditions: S-2266 substrate.
T4 construct: purchased Lee Biosolutions
Assay type: biochemical
Description: as §1, §3, §4

T4 sequence (P06870 25-262): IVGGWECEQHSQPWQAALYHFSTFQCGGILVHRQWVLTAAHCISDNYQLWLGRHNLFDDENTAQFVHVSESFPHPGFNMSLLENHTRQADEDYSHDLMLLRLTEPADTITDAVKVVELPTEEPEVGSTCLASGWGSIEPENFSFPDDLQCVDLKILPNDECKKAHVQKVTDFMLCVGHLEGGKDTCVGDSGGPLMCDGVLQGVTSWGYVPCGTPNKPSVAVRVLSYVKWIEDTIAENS

Question: Which Ki does the source give for `NCc1ccc(Cl)cc1CNC(=O)CC[C@@H](NS(=O)(=O)Cc1ccccc1)C(=O)N1CCC[C@H]1C(=O)NCc1cc(Cl)ccc1CN` [Compound 2.30] here?
Answer: The Ki was > 20 µM.

Question: How did the Ki turn out when `NCc1ccc(Cl)cc1CNC(=O)[C@@H]1CCCN1C(=O)[C@@H](CCC(=O)N1CCNCC1)NS(=O)(=O)Cc1ccccc1` [Compound 2.31] was run?
Answer: The Ki was > 100 µM.

These molecules were tested against T5, Human Activated Protein C (h aPC) (Homo sapiens, UniProt P04070) (assay: Inhibition of human activated protein C (reference enzyme)). Conditions: Pefachrome PCa substrate.
T5 construct: purchased Enzyme Research Laboratories
Assay type: biochemical
Description: as §1, §3, §4

T5 sequence (P04070 212-450 limits assumed): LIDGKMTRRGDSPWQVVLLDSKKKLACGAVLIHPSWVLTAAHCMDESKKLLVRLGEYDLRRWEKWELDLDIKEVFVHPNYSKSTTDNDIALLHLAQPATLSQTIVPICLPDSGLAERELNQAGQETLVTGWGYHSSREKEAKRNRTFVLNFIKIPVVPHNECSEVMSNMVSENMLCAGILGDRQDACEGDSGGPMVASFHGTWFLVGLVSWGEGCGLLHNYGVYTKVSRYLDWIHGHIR
T5 sequence (P04070 43-197 partner limits assumed): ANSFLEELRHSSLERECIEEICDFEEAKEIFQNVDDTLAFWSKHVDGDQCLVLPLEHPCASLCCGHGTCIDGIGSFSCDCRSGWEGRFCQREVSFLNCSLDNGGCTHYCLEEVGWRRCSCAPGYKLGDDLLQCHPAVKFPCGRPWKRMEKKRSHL

Question: For `NCc1ccc(Cl)cc1CNC(=O)CC[C@@H](NS(=O)(=O)Cc1ccccc1)C(=O)N1CCC[C@H]1C(=O)NCc1cc(Cl)ccc1CN` [Compound 2.30], which Ki is on record?
Answer: The Ki was > 25 µM.

Question: `NCc1ccc(Cl)cc1CNC(=O)[C@@H]1CCCN1C(=O)[C@@H](CCC(=O)N1CCNCC1)NS(=O)(=O)Cc1ccccc1` [Compound 2.31] was tested. Which Ki did it give?
Answer: Its Ki is > 100 µM.

What follows are molecules tested against T6, Human urokinase type plasminogen activator (h u-PA) (Homo sapiens, UniProt P00749) (assay: Inhibition of human urokinase type plasminogen activator (reference enzyme)). Conditions: H-Glu-Gly-Arg-pNA substrate.
T6 construct: purchased MEDAC GmbH Urokinase HS medac
Assay type: biochemical
Description: as §1, §3, §4

Question: For `NCc1ccc(Cl)cc1CNC(=O)CC[C@@H](NS(=O)(=O)Cc1ccccc1)C(=O)N1CCC[C@H]1C(=O)NCc1cc(Cl)ccc1CN` [Compound 2.30], which Ki is on record?
Answer: Its Ki is > 40 µM.

Question: Which Ki does the source give for `NCc1ccc(Cl)cc1CNC(=O)[C@@H]1CCCN1C(=O)[C@@H](CCC(=O)N1CCNCC1)NS(=O)(=O)Cc1ccccc1` [Compound 2.31] here?
Answer: The Ki was > 100 µM.

What follows are molecules tested against T7, Human plasmin (h plasmin) (Homo sapiens, UniProt P00747) (assay: Inhibition of human plasmin (reference enzyme)). Conditions: Chromozym PL substrate.
T7 construct: purchased Calbiochem
Assay type: biochemical
Description: as §1, §3, §4

T7 sequence (P00747 581-810 limits assumed): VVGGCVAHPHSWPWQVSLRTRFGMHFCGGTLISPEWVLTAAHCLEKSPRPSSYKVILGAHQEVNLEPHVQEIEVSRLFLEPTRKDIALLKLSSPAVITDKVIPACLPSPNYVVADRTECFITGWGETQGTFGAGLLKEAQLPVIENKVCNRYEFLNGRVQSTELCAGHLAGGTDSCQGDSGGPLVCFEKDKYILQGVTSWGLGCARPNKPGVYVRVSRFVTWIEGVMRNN
T7 sequence (P00747 97-580 partner limits assumed): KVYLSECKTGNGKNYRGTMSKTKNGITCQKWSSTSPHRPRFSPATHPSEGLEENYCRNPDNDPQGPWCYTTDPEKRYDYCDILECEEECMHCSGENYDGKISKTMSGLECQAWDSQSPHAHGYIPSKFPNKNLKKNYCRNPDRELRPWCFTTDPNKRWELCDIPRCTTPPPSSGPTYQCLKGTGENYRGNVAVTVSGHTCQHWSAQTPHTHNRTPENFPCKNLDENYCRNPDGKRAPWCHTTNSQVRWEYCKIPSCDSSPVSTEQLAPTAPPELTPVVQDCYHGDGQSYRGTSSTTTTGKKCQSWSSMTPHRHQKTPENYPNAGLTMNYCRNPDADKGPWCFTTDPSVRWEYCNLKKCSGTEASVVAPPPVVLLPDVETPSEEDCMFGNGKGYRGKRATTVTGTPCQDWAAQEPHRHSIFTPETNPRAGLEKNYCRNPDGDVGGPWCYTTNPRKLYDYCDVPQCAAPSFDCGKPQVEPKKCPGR

Question: For `NCc1ccc(Cl)cc1CNC(=O)CC[C@@H](NS(=O)(=O)Cc1ccccc1)C(=O)N1CCC[C@H]1C(=O)NCc1cc(Cl)ccc1CN` [Compound 2.30], which Ki is on record?
Answer: Its Ki is > 5 µM.

Question: How did the Ki turn out when `NCc1ccc(Cl)cc1CNC(=O)[C@@H]1CCCN1C(=O)[C@@H](CCC(=O)N1CCNCC1)NS(=O)(=O)Cc1ccccc1` [Compound 2.31] was run?
Answer: The Ki was > 10 µM.

These molecules were tested against T8, Subcomponent "r" of Human Complement Component 1 (h C1r) (Homo sapiens, UniProt P00736) (assay: Inhibition of human C1r (reference enzyme)). Conditions: S-2314 substrate; read-out: Ki h Clr.
T8 construct: purchased Calbiochem
T8 sequence (P00736 464-705 limits assumed): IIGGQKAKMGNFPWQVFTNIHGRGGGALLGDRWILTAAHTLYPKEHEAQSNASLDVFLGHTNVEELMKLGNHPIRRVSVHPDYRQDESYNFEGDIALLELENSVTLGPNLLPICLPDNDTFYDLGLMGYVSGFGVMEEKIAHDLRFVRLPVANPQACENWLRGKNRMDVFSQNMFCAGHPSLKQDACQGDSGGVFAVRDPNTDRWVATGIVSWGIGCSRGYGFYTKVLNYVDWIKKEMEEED
T8 sequence (P00736 18-463 partner limits assumed): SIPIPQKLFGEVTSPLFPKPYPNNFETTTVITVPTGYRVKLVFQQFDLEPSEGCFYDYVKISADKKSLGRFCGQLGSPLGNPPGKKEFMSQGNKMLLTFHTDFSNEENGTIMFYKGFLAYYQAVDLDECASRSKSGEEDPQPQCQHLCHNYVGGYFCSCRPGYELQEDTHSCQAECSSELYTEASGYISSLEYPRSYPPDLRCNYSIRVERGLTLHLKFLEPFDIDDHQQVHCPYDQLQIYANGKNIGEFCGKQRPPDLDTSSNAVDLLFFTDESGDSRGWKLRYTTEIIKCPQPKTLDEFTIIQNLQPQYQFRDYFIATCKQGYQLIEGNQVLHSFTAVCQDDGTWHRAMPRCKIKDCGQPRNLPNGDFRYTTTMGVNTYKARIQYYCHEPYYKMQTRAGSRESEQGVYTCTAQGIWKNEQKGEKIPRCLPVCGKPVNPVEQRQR
Assay type: biochemical
Description: as §1, §3, §4

Question: With `NCc1ccc(Cl)cc1CNC(=O)CC[C@@H](NS(=O)(=O)Cc1ccccc1)C(=O)N1CCC[C@H]1C(=O)NCc1cc(Cl)ccc1CN` [Compound 2.30] as the molecule, how does the Ki read?
Answer: Its Ki is > 30 µM.

Question: How did the Ki turn out when `NCc1ccc(Cl)cc1CNC(=O)[C@@H]1CCCN1C(=O)[C@@H](CCC(=O)N1CCNCC1)NS(=O)(=O)Cc1ccccc1` [Compound 2.31] was run?
Answer: Its Ki is > 100 µM.

What follows are molecules tested against T9, human factor IIa (human alpha-thrombin) (Homo sapiens, UniProt P00734) (assay: Inhibition constants for human factor IIa, chromogenic substrate assay). Conditions: 25° C., Pefachrome tPA substrate, average of at least three determinations; read-out: Ki h FIIa.
T9 construct: human alpha-thrombin from Enzyme Research Laboratories; purchased Enzyme Research Laboratories
Assay type: biochemical
Description: as §1, §2, §3

Question: `NCc1ccc(Cl)cc1CNC(=O)CC[C@@H](NS(=O)(=O)Cc1ccccc1)C(=O)N1CCC[C@H]1C(=O)NCc1cc(Cl)ccc1CN` [Compound 2.30] was tested. Which Ki did it give?
Answer: Its Ki is 0.00099 µM.

Question: With `NCc1ccc(Cl)cc1CNC(=O)[C@@H]1CCCN1C(=O)[C@@H](CCC(=O)N1CCNCC1)NS(=O)(=O)Cc1ccccc1` [Compound 2.31] as the molecule, how does the Ki read?
Answer: The Ki was 0.00048 µM.

The molecules below were run against T10, Human plasma kallikrein (h PK) (Homo sapiens, UniProt P03952) (assay: Inhibition of human plasma kallikrein (reference enzyme)). Conditions: S2302 substrate.
T10 construct: purchased Enzyme Research Laboratories
Assay type: biochemical
Description: as §1, §3, §4

T10 sequence (P03952 391-638 limits assumed): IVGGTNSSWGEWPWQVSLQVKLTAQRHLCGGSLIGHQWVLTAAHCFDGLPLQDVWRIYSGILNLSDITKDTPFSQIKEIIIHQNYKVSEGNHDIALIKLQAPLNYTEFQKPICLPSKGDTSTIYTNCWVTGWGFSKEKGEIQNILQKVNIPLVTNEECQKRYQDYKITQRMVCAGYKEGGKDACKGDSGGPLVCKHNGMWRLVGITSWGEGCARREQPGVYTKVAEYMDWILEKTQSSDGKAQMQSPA
T10 sequence (P03952 20-390 partner limits assumed): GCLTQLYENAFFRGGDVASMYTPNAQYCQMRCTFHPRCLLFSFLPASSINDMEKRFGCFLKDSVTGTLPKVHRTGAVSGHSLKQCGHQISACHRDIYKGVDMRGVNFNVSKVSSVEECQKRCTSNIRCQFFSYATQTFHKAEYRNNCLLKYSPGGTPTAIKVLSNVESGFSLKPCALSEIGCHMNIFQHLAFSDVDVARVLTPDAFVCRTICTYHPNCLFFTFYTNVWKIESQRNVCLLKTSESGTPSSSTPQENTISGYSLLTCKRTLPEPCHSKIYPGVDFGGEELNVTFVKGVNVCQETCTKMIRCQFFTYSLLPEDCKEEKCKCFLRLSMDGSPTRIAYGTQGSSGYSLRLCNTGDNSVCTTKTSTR

Question: For `NCc1ccc(Cl)cc1CNC(=O)CC[C@@H](NS(=O)(=O)Cc1ccccc1)C(=O)N1CCC[C@H]1C(=O)NCc1cc(Cl)ccc1CN` [Compound 2.30], which Ki is on record?
Answer: Its Ki is 0.432 µM.

Question: `NCc1ccc(Cl)cc1CNC(=O)[C@@H]1CCCN1C(=O)[C@@H](CCC(=O)N1CCNCC1)NS(=O)(=O)Cc1ccccc1` [Compound 2.31] was tested. Which Ki did it give?
Answer: Its Ki is 4 µM.
